# Where two headings read alike, the source gives them in different places.
# Legend:
# [1] = test system: Human Umbilical Endothelial Cells (HUVEC); experiment: EC migration (scratch assay and boyden chamber assay); assay type: cell-based
# Protocol: (§1) The effect of the non-aromatizable androgen dihydrotestosterone was assessed on three key angiogenic processes: endothelial cell (EC) migration, EC proliferation and EC tubulogenesis. Cells were treated with 0, 4, 40 or 400 nM dihydrotestosterone (DHT, a potent androgen) with and without the androgen-receptor antagonist hydroxyflutamide (HF).
# EC migration was assessed via a scratch assay and boyden chamber assay. Human Umbilical Endothelial Cells (HUVEC) monolayers were grown in the presence of varying doses of DHT±Hydroxyflutamide (HF), and either scratched or placed on top of permeable membranes. EC migration across the culture surface or through the membranes was assessed at 24 h and 6 h respectively via light and fluorescence microscopy respectively.
# HUVECs [2] = experiment: EC proliferation (direct counting of cell numbers and MTS Assay); assay type: cell-based, Human
# Protocol: as §1
# EC proliferation was assessed using two methods: direct counting of cell numbers and the MTS Assay. HUVECs were seeded at a density of 1×10^4 cells/ml (12 well plates for counting, 96 well plates for MTS assay) in endothelial growth media in the presence of varying doses DHT±Hydroxyflutamide (HF). After 48 h, cells were either harvested from 12 well plates and counted or incubated with MTS reagent in the 96 well plates with absorbance measured subsequently at 490 nm measured.
# HUVECs [3] = experiment: EC tubulogenesis (co-culture assay of fibroblasts and ECs); assay type: cell-based, Human; conditions: for EC tubulogenesis vs. 100% control value: donor cells; for tubule formation vs. 100% control value: male EC, chronic exposure (72 h)
# Protocol: The effect of the non-aromatizable androgen dihydrotestosterone was assessed on three key angiogenic processes: endothelial cell (EC) migration, EC proliferation and EC tubulogenesis.
# Co-cultures were grown in the presence of DHT±Hydroxyflutamide (HF). After 72 h, co-cultures were assessed using immunohistochemistry for EC specific markers and image analysis software.
# Male C57B16/J mice [4] = conditions: castrate+DHT male mice, after 7 days; control 0.39±0.03
# Text: (§2) Male C57B16/J mice were either castrated or sham-castrated after reaching sexual maturity (6 weeks). After a period of 10 days, 50% of both castrated and sham-castrated mice received a 1 cm subcutaneous silastic implant containing DHT.
# Male C57B16/J mice [5] = conditions: castrate+DHT
# Text: as §2
# Mononuclear cells were harvested from the spleens and bone marrow of all animals and assessed via cell culture and flow cytometry. Cells were and stained with fluorescein isothiocyanate-lectin and/or 1,1(-dioctadecyl-3,3,3(,3(-tetramethylindocarbocyanine (DiI)-labelled, acetylated low-density lipoprotein (Vasa M, et al. Number and migratory activity of circulating endothelial progenitor cells inversely correlate with risk factors for coronary artery disease. Circ Res. 2001; 89:e1-e7).
# [6] = intramuscular injection; cited from earlier work
structure (smiles),measurement,setting,value
"C[C@]12CCC(=O)C[C@@H]1CC[C@@H]1[C@@H]2CC[C@]2(C)[C@@H](O)CC[C@@H]12 [DHT, 5α-dihydrotestosterone]",EC migration vs. 100% control value,"[1]; donor cells, DHT 4 nM",90±5%
same,EC migration vs. 100% control value,"[1]; donor cells, DHT 40 nM",96±5%
same,EC migration vs. 100% control value,"[1]; donor cells, DHT 400 nM",93±8%
same,EC migration vs. 100% control value,"[1]; male EC, DHT 4 nM, after 24 h",138±7%
same,EC migration vs. 100% control value,"[1]; male EC, DHT 40 nM, after 24 h",280±23%
same,EC migration vs. 100% control value,"[1]; male EC, DHT 400 nM, after 24 h",306±32%
same,EC proliferation vs. 100% control value,"HUVECs [2]; donor cells, DHT 4 nM",92±5%
same,EC proliferation vs. 100% control value,"HUVECs [2]; donor cells, DHT 40 nM",92±3%
same,EC proliferation vs. 100% control value,"HUVECs [2]; donor cells, DHT 400 nM",89±6%
same,EC proliferation vs. 100% control value,"HUVECs [2]; male EC, DHT 4 nM, after 48 h",112±8%
same,EC proliferation vs. 100% control value,"HUVECs [2]; male EC, DHT 40 nM, after 48 h",118±5%
same,EC proliferation vs. 100% control value,"HUVECs [2]; male EC, DHT 400 nM, after 48 h",127±4%
same,EC tubulogenesis vs. 100% control value,HUVECs [3]; DHT 4 nM,92±3%
same,EC tubulogenesis vs. 100% control value,HUVECs [3]; DHT 40 nM,90±3%
same,EC tubulogenesis vs. 100% control value,HUVECs [3]; DHT 400 nM,92±3%
same,tubule formation vs. 100% control value,HUVECs [3]; DHT 4 nM,115±7%
same,tubule formation vs. 100% control value,HUVECs [3]; DHT 40 nM,137±5%
same,tubule formation vs. 100% control value,HUVECs [3]; DHT 400 nM,157±6%
same,Laser Doppler Perfusion Index (LDPI) ischemic/non-ischemic ratio,Male C57B16/J mice [4],0.6±0.06
same,spleen angiogenic cells,"Male C57B16/J mice [5]; absence of ischaemia, control 15.4±1, castrated 10.3±0.9",10±0.9 Angiogenic cells/×200 field
same,spleen angiogenic cells,"Male C57B16/J mice [5]; presence of ischaemia, control 22±1.7, castrated 16±0.8",26±1.3 Angiogenic cells/×200 field
same,bone marrow angiogenic cells,"Male C57B16/J mice [5]; presence of ischaemia, control 60±2.4, castrate 26±1.7",36±3 Angiogenic cells/×200 field
CCCCCCC(=O)O[C@H]1CC[C@H]2[C@@H]3CCC4=CC(=O)CC[C@]4(C)[C@H]3CC[C@]12C [Testosterone enanthate],time to peak serum testosterone levels after administration,[6],24 h

# From US9572817B2, “Use of androgens for vascular regeneration and endothelial repair” (THE HEART RESEARCH INSTITUTE LTD., priority 2008, dated 2017)
